Assay results taken from the NIST ThermoML archive (doi:10.1007/s10765-012-1233-x).
Numbers after ± are expanded uncertainties.

Conditions: Liquid; for viscosity: Falling or rolling sphere viscometry; for mass density: Vibrating tube method; for thermal conductivity: Hot wire method

Work on `CCCCCCn1cc[n+](C)c1.F[B-](F)(F)F` [1-hexyl-3-methylimidazolium tetrafluoroborate] yielded a viscosity (293.15 K, 100 kPa) of 286 ± 17 mPa·s, a mass density (293.15 K, 100 kPa) of 1148.6 ± 3.3 kg/m3 and a viscosity (293.15 K, 5000 kPa) of 302 ± 19 mPa·s. It also gave a mass density (293.15 K, 5000 kPa) of 1151.2 ± 3.3 kg/m3, a viscosity (293.15 K, 10000 kPa) of 318 ± 20 mPa·s and a mass density (293.15 K, 10000 kPa) of 1153.5 ± 3.3 kg/m3. It also gave a viscosity (293.15 K, 15000 kPa) of 345 ± 23 mPa·s, a mass density (293.15 K, 15000 kPa) of 1155.8 ± 3.4 kg/m3 and a viscosity (293.15 K, 20000 kPa) of 372 ± 26 mPa·s. It also gave a mass density (293.15 K, 20000 kPa) of 1158.2 ± 3.4 kg/m3, a thermal conductivity (294.2 K, 100 kPa) of 0.166 ± 0.004 W/m/K and a thermal conductivity (294.2 K, 10000 kPa) of 0.168 ± 0.004 W/m/K. For the same compound, the thermal conductivity (294.2 K, 20000 kPa) was 0.17 ± 0.004 W/m/K, the viscosity (313.15 K, 100 kPa) was 92.9 ± 3.2 mPa·s and the mass density (313.15 K, 100 kPa) was 1134.1 ± 3.2 kg/m3. It also gave a viscosity (313.15 K, 5000 kPa) of 98.7 ± 3 mPa·s, a mass density (313.15 K, 5000 kPa) of 1136.7 ± 3.2 kg/m3 and a viscosity (313.15 K, 10000 kPa) of 104 ± 3 mPa·s. It also gave a mass density (313.15 K, 10000 kPa) of 1139.4 ± 3.3 kg/m3, a viscosity (313.15 K, 15000 kPa) of 109 ± 4 mPa·s and a mass density (313.15 K, 15000 kPa) of 1141.8 ± 3.3 kg/m3. For the same compound, the viscosity (313.15 K, 20000 kPa) was 115 ± 5 mPa·s, the mass density (313.15 K, 20000 kPa) was 1144.2 ± 3.3 kg/m3 and the thermal conductivity (314.3 K, 100 kPa) was 0.165 ± 0.004 W/m/K. It also gave a thermal conductivity (314.3 K, 10000 kPa) of 0.168 ± 0.004 W/m/K, a thermal conductivity (314.3 K, 20000 kPa) of 0.169 ± 0.004 W/m/K and a viscosity (333.15 K, 100 kPa) of 40.4 ± 1 mPa·s. The mass density (333.15 K, 100 kPa) was 1120.5 ± 3.1 kg/m3, the viscosity (333.15 K, 5000 kPa) was 42.5 ± 1 mPa·s and the mass density (333.15 K, 5000 kPa) was 1123.1 ± 3.2 kg/m3. For the same compound, the viscosity (333.15 K, 10000 kPa) was 44.4 ± 1 mPa·s, the mass density (333.15 K, 10000 kPa) was 1125.8 ± 3.2 kg/m3 and the viscosity (333.15 K, 15000 kPa) was 45.5 ± 1.1 mPa·s. The mass density (333.15 K, 15000 kPa) was 1128.5 ± 3.2 kg/m3, the viscosity (333.15 K, 20000 kPa) was 48.2 ± 1.3 mPa·s and the mass density (333.15 K, 20000 kPa) was 1131.1 ± 3.3 kg/m3. For the same compound, the thermal conductivity (334.4 K, 100 kPa) was 0.164 ± 0.004 W/m/K, the thermal conductivity (334.4 K, 10000 kPa) was 0.167 ± 0.004 W/m/K and the thermal conductivity (334.4 K, 20000 kPa) was 0.169 ± 0.004 W/m/K. For the same compound, the viscosity (353.15 K, 100 kPa) was 21.2 ± 0.5 mPa·s, the mass density (353.15 K, 100 kPa) was 1107.1 ± 3.1 kg/m3 and the viscosity (353.15 K, 5000 kPa) was 22.3 ± 0.5 mPa·s. For the same compound, the mass density (353.15 K, 5000 kPa) was 1109.9 ± 3.1 kg/m3, the viscosity (353.15 K, 10000 kPa) was 22.7 ± 0.5 mPa·s and the mass density (353.15 K, 10000 kPa) was 1112.7 ± 3.1 kg/m3. It also gave a viscosity (353.15 K, 15000 kPa) of 23.9 ± 0.6 mPa·s, a mass density (353.15 K, 15000 kPa) of 1115.5 ± 3.2 kg/m3 and a viscosity (353.15 K, 20000 kPa) of 24.3 ± 0.6 mPa·s. The mass density (353.15 K, 20000 kPa) was 1118.3 ± 3.2 kg/m3.
With `CCCCCCCC[n+]1ccn(C)c1.F[B-](F)(F)F` [1-methyl-3-octylimidazolium tetrafluoroborate] the viscosity (293.15 K, 100 kPa) was 472 ± 36 mPa·s, the mass density (293.15 K, 100 kPa) was 1107.1 ± 3.1 kg/m3 and the viscosity (293.15 K, 5000 kPa) was 510 ± 41 mPa·s. For the same compound, the mass density (293.15 K, 5000 kPa) was 1109.7 ± 3.1 kg/m3, the viscosity (293.15 K, 10000 kPa) was 537 ± 44 mPa·s and the mass density (293.15 K, 10000 kPa) was 1112.2 ± 3.1 kg/m3. For the same compound, the viscosity (293.15 K, 15000 kPa) was 572 ± 48 mPa·s, the mass density (293.15 K, 15000 kPa) was 1114.6 ± 3.2 kg/m3 and the viscosity (293.15 K, 20000 kPa) was 649 ± 57 mPa·s. The mass density (293.15 K, 20000 kPa) was 1117 ± 3.2 kg/m3, the thermal conductivity (294.2 K, 100 kPa) was 0.164 ± 0.004 W/m/K and the thermal conductivity (294.2 K, 10000 kPa) was 0.165 ± 0.004 W/m/K. For the same compound, the thermal conductivity (294.2 K, 20000 kPa) was 0.167 ± 0.004 W/m/K, the viscosity (313.15 K, 100 kPa) was 146 ± 6 mPa·s and the mass density (313.15 K, 100 kPa) was 1093.5 ± 3 kg/m3. The viscosity (313.15 K, 5000 kPa) was 157 ± 7 mPa·s, the mass density (313.15 K, 5000 kPa) was 1096.1 ± 3 kg/m3 and the viscosity (313.15 K, 10000 kPa) was 166 ± 7 mPa·s. The mass density (313.15 K, 10000 kPa) was 1098.8 ± 3.1 kg/m3, the viscosity (313.15 K, 15000 kPa) was 175 ± 8 mPa·s and the mass density (313.15 K, 15000 kPa) was 1101.4 ± 3.1 kg/m3. It also gave a viscosity (313.15 K, 20000 kPa) of 188 ± 10 mPa·s, a mass density (313.15 K, 20000 kPa) of 1103.9 ± 3.1 kg/m3 and a thermal conductivity (314.3 K, 100 kPa) of 0.163 ± 0.004 W/m/K. The thermal conductivity (314.3 K, 10000 kPa) was 0.164 ± 0.004 W/m/K, the thermal conductivity (314.3 K, 20000 kPa) was 0.166 ± 0.004 W/m/K and the viscosity (333.15 K, 100 kPa) was 58 ± 1.5 mPa·s. It also gave a mass density (333.15 K, 100 kPa) of 1079.8 ± 3 kg/m3, a viscosity (333.15 K, 5000 kPa) of 60.6 ± 1.4 mPa·s and a mass density (333.15 K, 5000 kPa) of 1082.6 ± 3 kg/m3. The viscosity (333.15 K, 10000 kPa) was 63.6 ± 1.5 mPa·s, the mass density (333.15 K, 10000 kPa) was 1085.4 ± 3 kg/m3 and the viscosity (333.15 K, 15000 kPa) was 66.4 ± 1.6 mPa·s. The mass density (333.15 K, 15000 kPa) was 1088.1 ± 3 kg/m3, the viscosity (333.15 K, 20000 kPa) was 69.8 ± 2.1 mPa·s and the mass density (333.15 K, 20000 kPa) was 1090.8 ± 3.1 kg/m3. For the same compound, the thermal conductivity (334.4 K, 100 kPa) was 0.16 ± 0.004 W/m/K, the thermal conductivity (334.4 K, 10000 kPa) was 0.162 ± 0.004 W/m/K and the thermal conductivity (334.4 K, 20000 kPa) was 0.164 ± 0.004 W/m/K. It also gave a viscosity (353.15 K, 100 kPa) of 28.1 ± 0.7 mPa·s, a mass density (353.15 K, 100 kPa) of 1066.8 ± 2.9 kg/m3 and a viscosity (353.15 K, 5000 kPa) of 29.8 ± 0.7 mPa·s. For the same compound, the mass density (353.15 K, 5000 kPa) was 1069.7 ± 2.9 kg/m3, the viscosity (353.15 K, 10000 kPa) was 30.8 ± 0.7 mPa·s and the mass density (353.15 K, 10000 kPa) was 1072.7 ± 3 kg/m3. The viscosity (353.15 K, 15000 kPa) was 32.1 ± 0.7 mPa·s, the mass density (353.15 K, 15000 kPa) was 1075.5 ± 3 kg/m3 and the viscosity (353.15 K, 20000 kPa) was 33.4 ± 0.8 mPa·s. For the same compound, the mass density (353.15 K, 20000 kPa) was 1078.3 ± 3 kg/m3.
